Assay results: US6737383B1, “Herbicidal oxadiazolidines” (priority 1999, dated 2004)

Assays:
wheat = assay: Test B pre/postemergence wheat; type: in vivo, Triticum aestivum
Outline: (§1)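 Herbicidal effect was estimated by eye on a ten-point control scale after plants spent twelve to sixteen days in a greenhouse following soil or foliar treatment. Foliar sprays targeted plants at one to four leaves; all doses were formulated in a non-phytotoxic solvent with surfactant.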

surinam grass = assay: Test B pre/postemergence surinam grass; type: in vivo, Brachiaria decumbens
Outline: as §1

morningglory = assay: Test B pre/postemergence morningglory; type: in vivo, Ipomoea hederacea
Outline: as §1

velvetleaf = assay: Test B pre/postemergence velvetleaf; type: in vivo, Abutilon theophrasti
Outline: as §1

bedstraw = assay: Test B pre/postemergence bedstraw; type: in vivo, Galium aparine
Outline: as §1

wild oat = assay: Test B pre/postemergence wild oat; type: in vivo, Avena fatua
Outline: as §1

rape = assay: Test B pre/postemergence rape; type: in vivo, Brassica napus
Outline: as §1

pigweed = assay: Test B pre/postemergence pigweed; type: in vivo, Amaranthus retroflexus
Outline: as §1

corn = assay: Test B pre/postemergence corn; type: in vivo, Zea mays
Outline: as §1

cocklebur = assay: Test B pre/postemergence cocklebur; type: in vivo, Xanthium strumarium
Outline: as §1

crabgrass = assay: Test B pre/postemergence crabgrass; type: in vivo, Digitaria sanguinalis
Outline: as §1

soybean = assay: Test B pre/postemergence soybean; type: in vivo, Glycine max
Outline: as §1

blackgrass = assay: Test B pre/postemergence blackgrass; type: in vivo, Alopecurus myosuroides
Outline: as §1

sugar beet = assay: Test B pre/postemergence sugar beet; type: in vivo, Beta vulgaris
Outline: as §1

purple nutsedge = assay: Test B pre/postemergence purple nutsedge; type: in vivo, Cyperus rotundus; conditions: for Nutsedge plant response rating: 10 is complete control; for Plant response rating, Nutsedge: scale of 0 to 10 where 0 is no effect and 10 is complete control
Outline: as §1

giant foxtail = assay: Test B pre/postemergence giant foxtail; type: in vivo, Setaria faberii
Outline: as §1

[1] = Postemergence, Rate 62 g/ha, scale of 0 to 10, 0 is no effect, 10 is complete control
[2] = Postemergence, Rate 500 g/ha, scale of 0 to 10 where 0 is no effect and 10 is complete control
[3] = Preemergence, Rate 62 g/ha, scale 0 to 10 (0 no effect, 10 complete control)
[4] = Preemergence, Rate 125 g/ha, scale 0 to 10, 0 is no effect, 10 is complete control
[5] = Preemergence, Rate 500 g/ha, scale of 0 to 10 where 0 is no effect and 10 is complete control
[6] = Rate 250 g/ha, Postemergence, scale of 0 to 10 where 0 is no effect and 10 is complete control
[7] = Postemergence, Rate 125 g/ha, scale 0 to 10, 0 is no effect, 10 is complete control
[8] = Preemergence, Rate 62 g/ha, scale of 0 to 10 where 0 is no effect and 10 is complete control
[9] = Preemergence, Rate 125 g/ha, scale of 0 to 10 where 0 is no effect and 10 is complete control
[10] = Preemergence, Rate 250 g/ha, scale 0 to 10 (0 no effect, 10 complete control)

Structure (SMILES): CC(C)N(C(=O)n1oc(=O)n(CCCF)c1=O)c1ccccc1 [Compound 559]
- Wheat plant response rating (wheat; [1]): 2
- Plant response rating, Wheat (wheat; [2]): 3
- Wheat plant response rating (wheat; [3]): 3
- Wheat plant response rating (wheat; [4]): 8
- Wheat plant response rating (0 to 10 scale) (wheat; Preemergence, Rate 250 g/ha): 9
- Wheat plant response rating (wheat; [5]): 9
- Plant response rating, Wheat (wheat; [6]): 2
- B. signalgrass plant response rating (surinam grass; [1]): 4
- B. signalgrass plant response rating (surinam grass; [7]): 9
- Plant response rating, B. signalgrass (surinam grass; [2]): 9
- B. signalgrass plant response rating (surinam grass; [3]): 8
- B. signalgrass plant response rating (surinam grass; [4]): 10
- B. signalgrass plant response rating (0 to 10 scale, 0 is no effect, 10 is complete control) (surinam grass; Preemergence, Rate 250 g/ha): 9
- B. signalgrass plant response rating (surinam grass; [5]): 9
- Plant response rating, B. signalgrass (surinam grass; [6]): 9
- Morningglory plant response rating (morningglory; [1]): 9
- Morningglory plant response rating (morningglory; [7]): 10
- Plant response rating, Morningglory (morningglory; [2]): 10
- Morningglory plant response rating (morningglory; [3]): 0
- Morningglory plant response rating (morningglory; [4]): 2
- Morningglory plant response rating (0 to 10 scale) (morningglory; Preemergence, Rate 250 g/ha): 4
- Morningglory plant response rating (morningglory; [5]): 8
- Plant response rating, Morningglory (morningglory; [6]): 9
- Velvetleaf plant response rating (velvetleaf; [1]): 0
- Plant response rating, Velvetleaf (velvetleaf; [2]): 3
- Velvetleaf plant response rating (velvetleaf; [3]): 3
- Velvetleaf plant response rating (velvetleaf; [4]): 4
- Velvetleaf plant response rating (0 to 10 scale) (velvetleaf; Preemergence, Rate 250 g/ha): 6
- Velvetleaf plant response rating (velvetleaf; [5]): 9
- Plant response rating, Velvetleaf (velvetleaf; [6]): 2
- Bedstraw plant response rating (bedstraw; [7]): 0
- Plant response rating, Bedstraw (bedstraw; [2]): 4
- Bedstraw plant response rating (bedstraw; [3]): 0
- Bedstraw plant response rating (bedstraw; [4]): 0
- Bedstraw plant response rating (0 to 10 scale) (bedstraw; Preemergence, Rate 250 g/ha): 0
- Bedstraw plant response rating (bedstraw; [5]): 0
- Plant response rating, Bedstraw (bedstraw; [6]): 0
- Wild oats plant response rating (wild oat; [1]): 2
- Plant response rating, Wild oats (wild oat; [2]): 5
- Wild oats plant response rating (wild oat; [4]): 9
- Wild oats plant response rating (0 to 10 scale) (wild oat; Preemergence, Rate 250 g/ha): 9
- Wild oats plant response rating (wild oat; [5]): 9
- Plant response rating, Wild oats (wild oat; [6]): 4
- Rape plant response rating (rape; [1]): 0
- Rape plant response rating (rape; [7]): 0
- Plant response rating, Rape (rape; [2]): 2
- Rape plant response rating (rape; [3]): 7
- Rape plant response rating (rape; [4]): 9
- Rape plant response rating (0 to 10 scale) (rape; Preemergence, Rate 250 g/ha): 10
- Rape plant response rating (rape; [5]): 10
- Plant response rating, Rape (rape; [6]): 2
- Redroot pigweed plant response rating (pigweed; [1]): 0
- Plant response rating, Redroot pigweed (pigweed; [2]): 8
- Redroot pigweed plant response rating (pigweed; [3]): 7
- Redroot pigweed plant response rating (pigweed; [4]): 10
- Redroot pigweed plant response rating (0 to 10 scale) (pigweed; Preemergence, Rate 250 g/ha): 10
- Redroot pigweed plant response rating (pigweed; [5]): 10
- Plant response rating, Redroot pigweed (pigweed; [6]): 3
- Corn plant response rating (corn; [1]): 0
- Corn plant response rating (corn; [7]): 0
- Plant response rating, Corn (corn; [2]): 7
- Corn plant response rating (corn; [3]): 2
- Corn plant response rating (corn; [4]): 3
- Corn plant response rating (0 to 10 scale) (corn; Preemergence, Rate 250 g/ha): 6
- Corn plant response rating (corn; [5]): 6
- Plant response rating, Corn (corn; [6]): 6
- Cocklebur plant response rating (cocklebur; [1]): 0
- Cocklebur plant response rating (cocklebur; [7]): 0
- Plant response rating, Cocklebur (cocklebur; [2]): 2
- Cocklebur plant response rating (cocklebur; [3]): 0
- Cocklebur plant response rating (cocklebur; [4]): 0
- Cocklebur plant response rating (0 to 10 scale) (cocklebur; Preemergence, Rate 250 g/ha): 0
- Cocklebur plant response rating (cocklebur; [5]): 2
- Plant response rating, Cocklebur (cocklebur; [6]): 0
- Crabgrass plant response rating (crabgrass; [1]): 5
- Crabgrass plant response rating (crabgrass; [7]): 4
- Plant response rating, Crabgrass (crabgrass; [2]): 9
- Crabgrass plant response rating (crabgrass; [3]): 9
- Crabgrass plant response rating (crabgrass; [4]): 10
- Crabgrass plant response rating (0 to 10 scale) (crabgrass; Preemergence, Rate 250 g/ha): 10
- Crabgrass plant response rating (crabgrass; [5]): 10
- Plant response rating, Crabgrass (crabgrass; [6]): 9
- Soybean plant response rating (soybean; [1]): 4
- Plant response rating, Soybean (soybean; [2]): 6
- Soybean plant response rating (soybean; [3]): 0
- Soybean plant response rating (soybean; [4]): 2
- Soybean plant response rating (0 to 10 scale) (soybean; Preemergence, Rate 250 g/ha): 3
- Soybean plant response rating (soybean; [5]): 3
- Plant response rating, Soybean (soybean; [6]): 5
- Blackgrass plant response rating (blackgrass; [1]): 7
- Blackgrass plant response rating (blackgrass; [7]): 7
- Plant response rating, Blackgrass (blackgrass; [2]): 7
- Blackgrass plant response rating (blackgrass; [3]): 9
- Blackgrass plant response rating (blackgrass; [4]): 10
- Blackgrass plant response rating (0 to 10 scale) (blackgrass; Preemergence, Rate 250 g/ha): 10
- Blackgrass plant response rating (blackgrass; [5]): 10
- Plant response rating, Blackgrass (blackgrass; [6]): 7
- Sugarbeets plant response rating (sugar beet; [1]): 0
- Plant response rating, Sugarbeets (sugar beet; [2]): 8
- Sugarbeets plant response rating (sugar beet; [3]): 3
- Sugarbeets plant response rating (sugar beet; [4]): 6
- Sugarbeets plant response rating (0 to 10 scale) (sugar beet; Preemergence, Rate 250 g/ha): 9
- Sugarbeets plant response rating (sugar beet; [5]): 9
- Plant response rating, Sugarbeets (sugar beet; [6]): 2
- Nutsedge plant response rating (purple nutsedge; Postemergence, Rate 62 g/ha, scale of 0 to 10, 0 is no effect): 0
- Nutsedge plant response rating (purple nutsedge; Postemergence, Rate 125 g/ha, scale 0 to 10, 0 is no effect): 0
- Plant response rating, Nutsedge (purple nutsedge; Postemergence, Rate 500 g/ha): 2
- Plant response rating, Nutsedge (purple nutsedge; Rate 250 g/ha, Postemergence): 2
- Giant foxtail plant response rating (giant foxtail; [1]): 9
- Giant foxtail plant response rating (giant foxtail; [7]): 9
- Plant response rating, Giant foxtail (giant foxtail; [2]): 9
- Giant foxtail plant response rating (giant foxtail; [3]): 10
- Giant foxtail plant response rating (giant foxtail; [4]): 10
- Giant foxtail plant response rating (0 to 10 scale) (giant foxtail; Preemergence, Rate 250 g/ha): 10
- Giant foxtail plant response rating (giant foxtail; [5]): 10
- Plant response rating, Giant foxtail (giant foxtail; [6]): 9

Structure (SMILES): CC(C)N(C(=O)n1oc(=O)n(C(C)C=O)c1=O)c1ccccc1 (stereo not shown) [Compound 693]
- Wheat plant response rating (wheat; [8]): 0
- Plant response rating, Wheat (wheat; [9]): 0
- B. signalgrass plant response rating (surinam grass; [8]): 0
- Plant response rating, B. signalgrass (surinam grass; [9]): 0
- Plant response rating, B. signalgrass (surinam grass; [10]): 0
- Plant response rating, B. signalgrass (surinam grass; [5]): 0
- Morningglory plant response rating (morningglory; [8]): 0
- Plant response rating, Morningglory (morningglory; [9]): 0
- Velvetleaf plant response rating (velvetleaf; [8]): 0
- Plant response rating, Velvetleaf (velvetleaf; [9]): 0
- Bedstraw plant response rating (bedstraw; [8]): 0
- Plant response rating, Bedstraw (bedstraw; [9]): 0
- Plant response rating, Bedstraw (bedstraw; [10]): 0
- Plant response rating, Bedstraw (bedstraw; [5]): 0
- Wild oats plant response rating (wild oat; [8]): 0
- Plant response rating, Wild oats (wild oat; [9]): 0
- Rape plant response rating (rape; [8]): 0
- Plant response rating, Rape (rape; [9]): 0
- Redroot pigweed plant response rating (pigweed; [8]): 0
- Plant response rating, Redroot pigweed (pigweed; [9]): 0
- Corn plant response rating (corn; [8]): 0
- Plant response rating, Corn (corn; [9]): 0
- Plant response rating, Corn (corn; [10]): 0
- Cocklebur plant response rating (cocklebur; [8]): 0
- Plant response rating, Cocklebur (cocklebur; [9]): 0
- Plant response rating, Cocklebur (cocklebur; [10]): 0
- Plant response rating, Cocklebur (cocklebur; [5]): 0
- Crabgrass plant response rating (crabgrass; [8]): 0
- Plant response rating, Crabgrass (crabgrass; [9]): 0
- Plant response rating, Crabgrass (crabgrass; [10]): 0
- Soybean plant response rating (soybean; [8]): 0
- Plant response rating, Soybean (soybean; [9]): 0
- Blackgrass plant response rating (blackgrass; [8]): 0
- Plant response rating, Blackgrass (blackgrass; [9]): 0
- Plant response rating, Blackgrass (blackgrass; [10]): 0
- Plant response rating, Blackgrass (blackgrass; [5]): 2
- Sugarbeets plant response rating (sugar beet; [8]): 0
- Plant response rating, Sugarbeets (sugar beet; [9]): 0
- Plant response rating, Nutsedge (purple nutsedge; Preemergence, Rate 125 g/ha): 0
- Giant foxtail plant response rating (giant foxtail; [8]): 0
- Plant response rating, Giant foxtail (giant foxtail; [9]): 0
